Article PMC9068772, “Discovery of first-in-class nanomolar inhibitors of heptosyltransferase I reveals a new aminoglycoside target and potential alternative mechanism of action” (Scientific Reports, 2022)
In brackets after ≈: the same amount, converted by molar mass. Several values for one entry are separate records, joined by “and”; a condition that tells them apart may be missing. Equal values may be shown once.

Tests used:
[1] = target: T1, HepI K64A (Escherichia coli, UniProt P24173, K64A); experiment: HepI inhibition, ADP/NADH coupled assay (K64A mutant); format: biochemical, E. coli K12
T1 construct: made in house; host or cells: E. coli One Shot BL-21-AI (stated for HepI in general)
T1 sequence (P24173 whole entry K64A): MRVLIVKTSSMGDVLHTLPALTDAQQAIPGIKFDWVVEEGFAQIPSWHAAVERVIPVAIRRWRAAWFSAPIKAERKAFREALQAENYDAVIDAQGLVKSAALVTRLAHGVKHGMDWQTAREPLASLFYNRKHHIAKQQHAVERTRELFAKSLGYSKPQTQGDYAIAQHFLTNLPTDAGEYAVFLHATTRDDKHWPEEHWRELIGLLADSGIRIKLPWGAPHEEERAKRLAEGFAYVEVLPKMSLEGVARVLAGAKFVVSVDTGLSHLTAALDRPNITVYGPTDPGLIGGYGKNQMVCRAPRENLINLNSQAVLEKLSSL
Method: (§1) As previously reported[11],[14],[15], an ADP/NADH coupled assay was used to monitor HepI activity by monitoring the absorbance change at 340 nm at 37 °C on a Cary Bio 100 UV–Vis Spectrometer. Under normal conditions, the assay buffer was composed of 50 mM HEPES, 50 mM KCl, 10 mM MgCl2, pH 7.5. The coupled enzyme reaction additionally contained 100 μM phosphoenolpyruvate, 100 μM NADH, 100 μM dithiothreitol (DTT) and 0.05 U/μL of both pyruvate kinase and lactate dehydrogenase. 100 μM ADPH was used when ODLA concentration was varied and 100 μM ODLA was used when ADPH was varied. Once a stable baseline was established (~ 5 min), the reaction was initiated by addition of HepI to a final concentration of 50 nM or 100 nM (for high and lower substrate concentrations respectively) and all reported reaction rates are after background subtraction. When running 12 samples at once, plastic cuvette stirs and a repeat pipettor was used to inject 200 μL enzyme. Inhibition of HepI was monitored using the same ADP/NADH coupled assay, all conditions of the assay were the same as previously described unless otherwise stated. Ki values for each of the compounds were determined by varying compound final concentration from 100 μm to 10 nm, and a final concentration of 10 μM ODLA. Competition assays against ADPH were done with excess ODLA (100 μM) and varying ADPH from 2–0.25 μM. Competition assays against ODLA were done with excess ADPH (100 μM) and varying ODLA from 2–0.25 μM. Reactions were started with addition of enzyme and inhibitor was varied from 30–0.01 μM. Kinetics were fit to Lineweaver-Burke (Eq. 1), competitive (Eq. 2), non-competitive (Eq. 3), mixed (Eq. 4), Dixon (Eq. 5), or Cornish-Bowden (Eq. 6) models. All fitting and plotting was done through MATLAB R2018A.1 1/V1/[S]=KM/Vmax[S]+1/Vmax 2 V[S]=Vmax[S]/KM1+[I]/Ki+[S] 3 V[S]=Vmax[S]/1+([I]/Ki)/KM+[S] 4 V[S]=Vmax[S]/KM(1+[I]/Ki)+[S](1+[I]/αKi) 5 1/V[I]=KM1+I/Ki+[S]1+I/αKi/Vmax[S] 6 [S]/V[I]=KM1+I/Ki+[S]1+I/αKi/Vmax

[2] = tested on: LPS production in E. coli K12; experiment: LPS visualization gels of lipid extracts from growth challenge samples; format: cell-based; conditions: for Concentration range over which LPS production decreases: E. coli K12, lipids from 4 × 10^8 cells; for IC50: Escherichia coli, E. coli K12, silver-stained gels, inflection point of sigmoid fit, read-out: IC50 of LPS production (LPS band pixel density)
Method: (§2) The assays were prepared by plating E. coli K12 onto an LB-agar plate and grown overnight (12–18 h)[60]. A colony forming unit was chosen to inoculate 10 mL of fresh LB media in a tightly capped 15 mL falcon tube and placed in an incubator (no agitation) at 37 °C for exactly 24 h to increase the number of viable cells for inoculation of the plate and thusly reproducibility in highly variable growth patterns. A 96-well plate was then filled with a variety of inhibitor concentrations taken from stock solutions made up in ultra-pure water allowing for one row to remain free of the inhibitor. Each inhibitor concentration was given 3-wells to ensure a triplicate of data is collected at once. With the same fresh media used to make the overnight culture, the overnight growths were added to the plate in a 1:1000 dilution (total volume 200 uL) and the plate sealed with clear adhesive plastic sealant. One row has been designated for uncultured media to be used for pre-blanking measurements and to ensure that the media isn’t growing spontaneously.
(§3) As previously established, lipid extraction occurs through lysis of surface polysaccharides with a lysis buffer containing 1% SDS, 20% glycerol, 100 mM Tris–HCl and 0.04% bromophenol blue at a pH 6.8[61]. The cellular concentrations from each well were determined using the last collected OD600 corrected using Eq. (8), centrifuged and resuspended in the correct volume of lysis buffer to obtain 4 × 10^8 cells/100 µL solution. Addition of Proteinase K at 1 mg/mL concentration was incubated for 1 h at 37 °C. These samples were then loaded onto a 15% separating, 6% stacking SDS–polyacrylamide gel (recipes received from https://www.bio-rad.com/) in a 19:1 acrylamide to bis-acrylamide ratio and run with a voltage gradient from 50–150 V. The gels were then stained using the protocol described previously with no modifications[62] and imaged using a scanner.
(§4) Relative LPS band density was determined using analysis methods provided by ImageJ software. The band pixel density were analyzed relative to a purified sample of heptosylated O-deacylated Lipid A at 100 nM. The plot was generated of relative band density vs. concentration of inhibitor[63].

[3] = target: T2, HepI R63A (Escherichia coli, UniProt P24173, R63A); experiment: HepI inhibition, ADP/NADH coupled assay (R63A mutant); format: biochemical, E. coli K12
T2 construct: made in house; host or cells: E. coli One Shot BL-21-AI (stated for HepI in general)
T2 sequence (P24173 whole entry R63A): as the sequence (P24173 whole entry K64A) above, with R63A, A64K counted along it
Method: as §1

[4] = tested on: E. coli K12; experiment: Growth challenge assay, 96-well plate; format: cell-based; conditions: for Inflection point in cell viability: E. coli K12, growth rate, Fig. 9; for Effect on growth of E. coli K12: increasing concentrations, 18-h period
Method: as §2
An experimental protocol was created using the Softmax Pro® software for a Molecular Devices Spectramax M5 plate reader. The parameters have been selected such that it collects pre-blanked absorbance readings at 600 nm wavelengths every 30 min at 37 °C with shaking every 10 min at 400 s intervals for 18 h total. Absorbance values were corrected for path length using the lateral reading path correction (8) and are plotted overtime to establish a growth curve.8 l=4×V/π×d^2 l = path length from Beer’s law ( A=εlc ), V = volume (cm^3), d = diameter of well (cm).
Data from the growth assay were analyzed using MATLAB R2018A. The derivative of the curve was calculated and the maximum rate as determined by the derivative was reported as the growth rate for that condition.

[5] = target: T3, Heptosyltransferase I (HepI) WT (Escherichia coli, UniProt P24173); experiment: HepI inhibition, ADP/NADH coupled assay (wild type); format: biochemical, E. coli K12; conditions: for kcat: HepI WT in presence of inhibitor; for Ki: 10 μM ODLA, inhibitor varied; for Type of inhibition with ODLA: excess ADPH, ODLA varied, Lineweaver–Burk, Dixon, Cornish-Bowden; for Type of inhibition against ADPH: excess ODLA, ADPH varied; for ΔG (kcal/mol) Exp: Gibbs equation with Ki as equilibrium constant
T3 construct: made in house; host or cells: E. coli One Shot BL-21-AI
T3 sequence (P24173 whole entry): as the sequence (P24173 whole entry K64A) above, with A64K counted along it
Method: as §1

[6] = tested on: capsular polysaccharide (cps) band of E. coli K12 total lipid extract; experiment: Capsular polysaccharide band density on silver-stained gels; format: cell-based
Method: as §2, §3, §4

## [H]/N=C(/N)N[C@H]1[C@H](O)[C@@H](O)[C@H](O[C@@H]2O[C@@H](C)[C@](O)(C=O)[C@H]2O[C@@H]2O[C@@H](CO)[C@H](O)[C@@H](O)[C@@H]2NC)[C@@H](N/C(N)=N\[H])[C@@H]1O [Streptomycin]
[1]
  Ki: 5.76 ± 0.485 µM
[1]; HepI K64A in presence of inhibitor
  kcat: 0.117 ± 0.009 s⁻¹
[1]; HepI K64A vs WT
  Ki relative to WT: increased the Ki values an order of magnitude
[1]; Lys64Ala relative to WT
  ΔΔG (kcal/mol) Exp: 1.3 ± 0.1 kcal/mol
[1]; Lys64Ala, from Ki
  ΔG (kcal/mol) Exp: -7.1 ± 0.1 kcal/mol
[2]
  Concentration range over which LPS production decreases: 25 to 27.5 ng/mL
  IC50: 0.0262 ± 0.001 µg/mL (≈ 0.045 µM)
[3]
  Ki: 6.66 ± 0.699 µM
[3]; Arg63Ala relative to WT
  ΔΔG (kcal/mol) Exp: 1.4 ± 0.1 kcal/mol
[3]; Arg63Ala, from Ki
  ΔG (kcal/mol) Exp: -7.1 ± 0.1 kcal/mol
[3]; HepI R63A in presence of inhibitor
  kcat: 0.198 ± 0.024 s⁻¹
[3]; HepI R63A vs WT
  Ki relative to WT: increased the Ki values an order of magnitude
[4]
  Inflection point in cell viability: 25 ng/mL
  Effect on growth of E. coli K12: challenges the growth
[5]
  kcat: 0.162 ± 0.008 s⁻¹
[5]; HepI WT
  Ki: 0.595 ± 0.09 µM
  Type of inhibition with ODLA: Non-competitive
  Type of inhibition against ADPH: non-competitive
  ΔG (kcal/mol) Exp: -8.5 ± 0.1 kcal/mol
[6]; 12.5 ng/mL streptomycin, relative to 0 ng/mL = 1
  Relative pixel density from cps band: 1.019
[6]; 15 ng/mL streptomycin
  Relative pixel density from cps band: 1.115
[6]; 17.5 ng/mL streptomycin
  Relative pixel density from cps band: 1.105
[6]; 20 ng/mL streptomycin
  Relative pixel density from cps band: 1.323
[6]; 22.5 ng/mL streptomycin
  Relative pixel density from cps band: 1.458
[6]; 25 ng/mL streptomycin
  Relative pixel density from cps band: 1.335
[6]; 27.5 ng/mL streptomycin
  Relative pixel density from cps band: 1.687
[6]; 30 ng/mL streptomycin
  Relative pixel density from cps band: 1.477
[6]; 32.5 ng/mL streptomycin
  Relative pixel density from cps band: 1.070
[6]; 35 ng/mL streptomycin
  Relative pixel density from cps band: 0.654

## NC[C@H]1O[C@H](O[C@H]2[C@H](O)[C@@H](O[C@H]3O[C@H](CO)[C@@H](O)[C@H](N)[C@H]3O)[C@H](N)C[C@@H]2N)[C@H](N)C[C@@H]1O [Tobramycin]
[2]; E. coli K12
  Concentration at which no LPS is detectible: ≥ 7.5 ng/mL
[2]
  Concentration range over which LPS production decreases: 5 to 7 ng/mL
  IC50: 0.0064 ± 0.0001 µg/mL (≈ 0.0137 µM)
[4]
  Inflection point in cell viability: around 6.5 ng/mL
  Effect on growth of E. coli K12: challenges the growth
[5]; HepI WT
  α value, mixed model of inhibition with ODLA: greater than one
  Ki: 1.1 µM and 1.13 µM
  Type of inhibition with ODLA: Mixed competitive
  Type of inhibition against ADPH: uncompetitive
  ΔG (kcal/mol) Exp: -8.1 ± 0.1 kcal/mol
[5]
  kcat: 0.15 ± 0.005 s⁻¹
[6]; 4 ng/mL tobramycin, relative to 0 ng/mL = 1
  Relative pixel density from cps band: 1.752
[6]; 4.5 ng/mL tobramycin
  Relative pixel density from cps band: 4.293
[6]; 5 ng/mL tobramycin
  Relative pixel density from cps band: 7.121
[6]; 5.5 ng/mL tobramycin
  Relative pixel density from cps band: 5.786
[6]; 6 ng/mL tobramycin
  Relative pixel density from cps band: 3.692
[6]; 6.5 ng/mL tobramycin
  Relative pixel density from cps band: 2.319
[6]; 7 ng/mL tobramycin
  Relative pixel density from cps band: 1.163
[6]; 7.5 ng/mL tobramycin
  Relative pixel density from cps band: 1.421
[6]; 8 ng/mL tobramycin
  Relative pixel density from cps band: 1.641
[6]; 9 ng/mL tobramycin
  Relative pixel density from cps band: 1.606
